Test results published in patent publication EP4789665A1, “TREATMENT OF HIS HYPORESPONDERS” (NewAmsterdam Pharma B.V., priority 2021, dated 2023).
“And” between values parts separate entries of the source, which are not always exact repeats. Identical values can stand only once.

Biological target: T1, CETP (Homo sapiens, UniProt P11597)
T1 construct: endogenous in cells; host or cells: trial patients (in vivo, circulating plasma CETP)
T1 sequence (P11597 18-493): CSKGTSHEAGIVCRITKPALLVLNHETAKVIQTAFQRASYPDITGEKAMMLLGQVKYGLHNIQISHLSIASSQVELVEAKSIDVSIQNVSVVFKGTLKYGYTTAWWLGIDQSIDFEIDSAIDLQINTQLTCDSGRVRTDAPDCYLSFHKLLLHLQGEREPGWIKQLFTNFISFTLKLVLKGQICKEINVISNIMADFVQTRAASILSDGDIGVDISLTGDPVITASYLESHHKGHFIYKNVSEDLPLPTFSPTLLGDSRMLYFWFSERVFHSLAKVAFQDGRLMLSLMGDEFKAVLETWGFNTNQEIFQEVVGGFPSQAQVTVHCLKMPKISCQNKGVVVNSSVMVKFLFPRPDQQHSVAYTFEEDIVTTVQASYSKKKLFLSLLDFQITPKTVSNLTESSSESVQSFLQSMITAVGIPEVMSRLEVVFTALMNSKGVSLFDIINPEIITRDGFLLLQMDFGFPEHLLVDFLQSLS
Assay: Placebo-controlled, double-blind, randomized phase 2 study of obicetrapib as adjunct to high-intensity statin therapy: lipoprotein lipid and apolipoprotein responses
Type: in vivo
Conditions: for LDL-C by PUC, % Change from Baseline LS mean (95% CI) / LDL-C reduced from baseline (Friedewald formula) / Apo B reduced by / Lp(a) reduced by / non-HDL-C reduced by: 8 weeks; for LDL-C by PUC, % Change from Baseline LS mean (95% CI) / Apo A1 Week 8 change, LS Mean ± SE / Apo B Week 8 change, LS Mean ± SE / HDL-C Week 8 change, LS Mean ± SE / LDL-C (Martin-Hopkins) Week 8 change, LS Mean ± SE / Lp(a) Week 8 change, LS Mean ± SE / Non-HDL-C Week 8 change, LS Mean ± SE / TG Week 8 change, LS Mean ± SE / VLDL-C Week 8 change, LS Mean ± SE / LDL-C (PUC) Week 8 change, LS Mean ± SE / LDL-C reduced from baseline (Friedewald formula) / Apo B reduced by / Lp(a) reduced by / non-HDL-C reduced by: adjunct to high-intensity statin; for LDL-C by PUC, % Change from Baseline LS mean (95% CI): Table 3; for Apo A1 Week 8 change, Median (min, max) / LDL-C (Martin-Hopkins) Week 8 change, Median (min, max) / Lp(a) Week 8 change, Median (min, max) / TG Week 8 change, Median (min, max) / VLDL-C Week 8 change, Median (min, max): adjunct to high-intensity statin therapy; for Apo A1 Week 8 change, LS Mean ± SE / Apo B Week 8 change, LS Mean ± SE / HDL-C Week 8 change, LS Mean ± SE / LDL-C (Martin-Hopkins) Week 8 change, LS Mean ± SE / Lp(a) Week 8 change, LS Mean ± SE / Non-HDL-C Week 8 change, LS Mean ± SE / TG Week 8 change, LS Mean ± SE / VLDL-C Week 8 change, LS Mean ± SE / LDL-C by Friedewald, % Change from Baseline LS mean: MMRM; for LDL-C (PUC) Week 8 change, LS Mean ± SE: analysis of covariance model, Table 9; for ApoB, % change from Baseline Median / HDL-C, % change from Baseline Median / LDL-C by Friedewald, % Change from Baseline (median) / LDL-C by PUC, % Change from Baseline (median) / Non-HDL-C, % Change from Baseline (median): week 8, adjunct to high-intensity statin therapy; for LDL-C by Friedewald, % Change from Baseline LS mean: week 8, adjunct to high-intensity statin; for LDL-C reduced from baseline (Friedewald formula): primary analysis; for LDL-C reduced from baseline (Friedewald formula) / Apo B reduced by / Lp(a) reduced by / non-HDL-C reduced by: stated as reduction
Experimental: To evaluate the efficacy, safety, and tolerability of obicetrapib as an adjunct to high-intensity statin therapy, a placebo-controlled, double-blind, randomized, phase 2 study was carried out.
The study consisted of three arms: 1) 5 mg obicetrapib as adjunctive therapy; 2) 10 mg obicetrapib as adjunctive therapy and 3) a placebo arm. The second objective was to evaluate other lipoprotein lipid and apolipoprotein responses, safety and tolerability profiles, and plasma concentrations of obicetrapib during treatment and for several weeks of follow-up. Lastly, this study aimed to determine if different quantitative measures of LDL-C levels produced differences in the treatment effects of CETP inhibition.
This randomised, double-blind, placebo-controlled, parallel-group phase 2 trial was conducted in male and female patients (18-75 years), treated with high-intensity statin therapy, with LDL-C levels >70 mg/DL and TG levels < 400 mg/dL. Key exclusion criteria were patients with BMI > 40 kg/m; Significant cardiovascular disease; HbA1c > 10%; Uncontrolled hypertension; Active muscle disease; GFR < 60 ml/min; Hepatic dysfunction; Anemia; History of malignancy; Alcohol abuse; Treatment with investigational product; Treatment with PCSK9 inhibitor; Clinically significant condition; and/or prior exposure to a CETP inhibitor. Patients were recruited at 19 sites in the United States. The trial was approved by Independent Ethics Committees, and each patient provided written informed consent. The trial was conducted in accordance with the principles of the Declaration of Helsinki and Good Clinical Practice Guidelines and the protocol was registered on ClinicalTrials.gov (NCT04753606).
The screening period for this study took up to 2-weeks. Afterwards patients were randomized to placebo, 5 mg obicetrapib or 10 mg obicetrapib for an 8-week treatment period. After the treatment period, patients continued for a 4-week safety follow-up and a 15-week PK follow-up.
Patients were randomly assigned to receive one of the three treatments investigative treatments. All treatments were to be taken once daily with food for 8 weeks. Safety was assessed throughout the trial by monitoring adverse events and concomitant medication use, 12-lead electrocardiograms (ECGs), vital signs, laboratory safety assessments and physical examinations. Additional assessments included salivary cortisol, plasma aldosterone, high-sensitivity C-reactive protein (hsCRP) and endothelin 1.
Efficacy assessments included fasted lipid profiles including total cholesterol (TC), HDL-C, LDL-C, triglycerides, apolipoprotein B (ApoB), and derived parameters.
Total cholesterol and triglycerides were measured by homogenous enzymatic assay using a Modular analyser (cholesterol oxidase peroxidase-peroxidase aminophenazone phenol [CHOP-PAP]) method and a glycerol phosphate oxidase [GPO-PAP] method, respectively. Apolipoprotein B was measured by immunoturbidimetry using reagents from Rolf Greiner Biochemica (Germany) and N apoprotein standard serum from Siemens (Germany). LDL particle size was determined by gradient gel electrophoresis. HDL fraction was separated by a combined ultracentrifugation-precipitation method (β-quantification). HDL-2 and HDL-3 fractions were then separated by further ultracentrifugation. Total-cholesterol in HDL, HDL 2 and HLD-3 fractions, free cholesterol in HDL fraction, triglycerides in HDL fraction and phospholipids in plasma and HDL-fraction were measured using enzymatic methods and reagents from Diasys Diagnostics (Germany). The measurements were performed on an Olympus AU600 automatic analyzer and were calibrated using secondary standards from Roche Diagnostics (total-cholesterol, triglycerides) and Diasys Diagnostics (free cholesterol, phospholipids), respectively. Esterified cholesterol was calculated as the difference between total-cholesterol and free cholesterol.
The primary outcome measure was LDL-C (percent change). […]

[1] = 5 mg once daily for 8 weeks as adjunct to high-intensity statin therapy
[2] = 5 mg once daily, listed as obicetrapib
[3] = 10 mg once daily for 8 weeks as adjunct to high-intensity statin therapy
[4] = 10 mg once daily, listed as obicetrapib

Compound: CCOC(=O)N1c2ccc(C(F)(F)F)cc2[C@@H](N(Cc2cc(C(F)(F)F)cc(C(F)(F)F)c2)c2ncc(OCCCC(=O)O)cn2)C[C@H]1CC [Obicetrapib, (2R,4S)-4-{[3,5-bis(trifluoromethyl)benzyl]-[5-(3-carboxypropoxy)pyrimidin-2-yl]amino}-2-ethyl-6-trifluoromethyl-3,4-dihydro-2H-quinoline-1-carboxylic acid ethyl ester]
- ApoB, Change from Baseline Median mg/dL [1]: -22.0 mg/dL
- ApoB, EoT Median [1]: 65.0 mg/dL
- HDL-C, Change from Baseline Median mg/dL [1]: 60.0 mg/dL
- HDL-C, EoT Median [1]: 107.0 mg/dL
- LDL-C by Friedewald, EoT Median [1]: 51.0 mg/dL
- LDL-C by PUC, EoT Median [1]: 53.0 mg/dL
- Non-HDL-C, EoT Median [1]: 71 mg/dL
- LDL-C by PUC, % Change from Baseline LS mean (95% CI) (5 mg once daily): -37.98%
- Apo A1 Week 8 change, Median (min, max) (5 mg once daily): 44.6% and 44.6 (-10.0, 87.1) %
- LDL-C (Martin-Hopkins) Week 8 change, Median (min, max) (5 mg once daily): -42.5 (-80.8, 74.4) %
- Lp(a) Week 8 change, Median (min, max) (5 mg once daily): -33.8 (-84.6, 93.8) %
- TG Week 8 change, Median (min, max) (5 mg once daily): -11.0 (-53.3, 86.7) %
- VLDL-C Week 8 change, Median (min, max) (5 mg once daily): -11.5 (-53.5, 83.3) %
- TG Week 8 change, Median (min, max) [2]: -11.0%
- VLDL-C Week 8 change, Median (min, max) [2]: -11.5%
- Apo A1 Week 8 change, LS Mean ± SE (5 mg once daily): 41.1 ± 3.04%
- Apo B Week 8 change, LS Mean ± SE (5 mg once daily): -22.4 ± 2.58%
- HDL-C Week 8 change, LS Mean ± SE (5 mg once daily): 122 ± 6.59%
- LDL-C (Martin-Hopkins) Week 8 change, LS Mean ± SE (5 mg once daily): -39.6 ± 3.68%
- Lp(a) Week 8 change, LS Mean ± SE (5 mg once daily): -30.9 ± 4.43%
- Non-HDL-C Week 8 change, LS Mean ± SE (5 mg once daily): -34.4 ± 3.18%
- TG Week 8 change, LS Mean ± SE (5 mg once daily): -6.63 ± 5.32%
- VLDL-C Week 8 change, LS Mean ± SE (5 mg once daily): -6.02 ± 5.24%
- LDL-C (PUC) Week 8 change, LS Mean ± SE (5 mg once daily): -35.7 ± 3.31%
- ApoB, % change from Baseline Median (5 mg once daily): -24.40% and -24.4 (-58.5, 47.4) %
- HDL-C, % change from Baseline Median (5 mg once daily): 135% and 135.4% and 135 (-26.4, 213) %
- LDL-C by Friedewald, % Change from Baseline (median) (5 mg once daily): -42.90% and -42.9 (-81.9, 72.4) %
- LDL-C by PUC, % Change from Baseline (median) (5 mg once daily): -41.5% and -41.45% and -41.5 (-71.2, 62.3) %
- Non-HDL-C, % Change from Baseline (median) (5 mg once daily): -38.9% and -38.9 (-65.6, 66.3) %
- LDL-C by PUC, % Change from Baseline (median) [2]: -41.5%
- LDL-C by Friedewald, % Change from Baseline LS mean (5 mg once daily): -37.94% and -38.0 ± 3.49%
- LDL-C reduced from baseline (Friedewald formula) (5 mg): 42.9%
- Apo B reduced by (5 mg): 24.4%
- Lp(a) reduced by (5 mg): 33.8%
- non-HDL-C reduced by (5 mg): 38.9%
- ApoB, Change from Baseline Median mg/dL [3]: -24.5 mg/dL
- ApoB, EoT Median [3]: 58.5 mg/dL
- HDL-C, Change from Baseline Median mg/dL [3]: 72.0 mg/dL
- HDL-C, EoT Median [3]: 117.5 mg/dL
- LDL-C by Friedewald, EoT Median [3]: 52.0 mg/dL
- LDL-C by PUC, EoT Median [3]: 49.5 mg/dL
- Non-HDL-C, EoT Median [3]: 69 mg/dL
- LDL-C by PUC, % Change from Baseline LS mean (95% CI) (10 mg once daily): -44.15%
- Apo A1 Week 8 change, Median (min, max) (10 mg once daily): 47.8% and 47.8 (13.5, 106) %
- LDL-C (Martin-Hopkins) Week 8 change, Median (min, max) (10 mg once daily): -49.2 (-77.0, 28.1) %
- Lp(a) Week 8 change, Median (min, max) (10 mg once daily): -56.5 (-85.7, 18.3) %
- TG Week 8 change, Median (min, max) (10 mg once daily): -7.85 (-63.7, 129) %
- VLDL-C Week 8 change, Median (min, max) (10 mg once daily): -7.90 (-44.4, 125) %
- LDL-C (Martin-Hopkins) Week 8 change, Median (min, max) [4]: -49.2%
- Apo A1 Week 8 change, LS Mean ± SE (10 mg once daily): 52.3 ± 3.04%
- Apo B Week 8 change, LS Mean ± SE (10 mg once daily): -28.1 ± 2.56%
- HDL-C Week 8 change, LS Mean ± SE (10 mg once daily): 157 ± 6.54%
- LDL-C (Martin-Hopkins) Week 8 change, LS Mean ± SE (10 mg once daily): -46.9 ± 3.65%
- Lp(a) Week 8 change, LS Mean ± SE (10 mg once daily): -42.0 ± 4.33%
- Non-HDL-C Week 8 change, LS Mean ± SE (10 mg once daily): -39.9 ± 3.15%
- TG Week 8 change, LS Mean ± SE (10 mg once daily): 2.45 ± 5.27%
- VLDL-C Week 8 change, LS Mean ± SE (10 mg once daily): 3.08 ± 5.19%
- LDL-C (PUC) Week 8 change, LS Mean ± SE (10 mg once daily): -46.8 ± 3.23%
- ApoB, % change from Baseline Median (10 mg once daily): -29.75% and -29.8 (-58.4, 13.0) %
- HDL-C, % change from Baseline Median (10 mg once daily): 165% and 165 (55.1, 286) %
- LDL-C by Friedewald, % Change from Baseline (median) (10 mg once daily): -45.65% and -45.7 (-78.0, 26.2) %
- LDL-C by PUC, % Change from Baseline (median) (10 mg once daily): -50.8% and -50.75% and -50.8 (-76.9, 15.6) %
- Non-HDL-C, % Change from Baseline (median) (10 mg once daily): -44.4% and -44.4 (-70.2, 22.5) %
- LDL-C by PUC, % Change from Baseline (median) [4]: -50.8%
- LDL-C by Friedewald, % Change from Baseline LS mean (10 mg once daily): -44.15% and -44.2 ± 3.46%
- LDL-C reduced from baseline (Friedewald formula) (10 mg): 45.7%
- Apo B reduced by (10 mg): 29.8%
- Lp(a) reduced by (10 mg): 56.5%
- non-HDL-C reduced by (10 mg): 44.4%
- median Apo B reductions from baseline (10 mg, post-hoc analysis, individuals with baseline Apo B >100 mg/dL): 39%
